The values below are quoted from earlier work in patent publication EP3738589B1, “A COMPOSITION FOR THE PREVENTION AND/OR TREATMENT OF OROPHARYNGEAL MUCOSA DISEASES” (Neilos S.r.l., priority 2019, dated 2020).

For series [1], the system named is patients suffering from BPCO. The settings on record: patients suffering from BPCO treated with NAC; from 1.71 times a year.
In series [2] the test system is BPCO.
The test system of series [3] is oral mucositis caused by chemotherapy. The settings on record: hematopoietic SCT.
The test system of series [4] is oral mucositis. The settings on record: patients with cancer.

The structures appear in SMILES notation.

As to `CC(=O)N[C@@H](CS)C(=O)O` [NAC, N-acetyl-L-cysteine], the reduction in exacerbations in series [1] is on record as 0.96 times a year. Further, in series [2] (BPCO), the “days of discomfort are reduced by” value is reported as 0.56 days/month, the “exacerbations of the disease are reduced by” value is 0.07 exacerbation/month and the “reduce hospitalizations due to BPCO by” value is listed as 30%. In addition, in series [2] (from 25%, after a short 4-week-therapy), the “increase in FEV1” value is 30%. Besides, the “incidence and grade of oral mucositis” value in series [3] was “reduces the incidence and grade of oral mucositis”.

As for `O=C1O[C@H]([C@@H](O)CO)C(O)=C1O` [vitamin C, ascorbic acid], the “severity of oral mucositis” value in series [4] was “alleviates the severity of oral mucositis”.
